Measured values as given in patent US20220401429A1, “USE OF ANAMORELIN TO TREAT CANCER-RELATED FATIGUE” (Helsinn Healthcare SA, priority 2021, published 2022).

Key:
Format in all cases: in vivo, human
[1] = tested on: patients with advanced cancer; test: Multidimensional Fatigue Symptom Inventory-Short Form (MFSI-SF), Example 1 study; settings: change from baseline, 100 mg oral daily + physical activity + nutritional counseling
Experimental: (§1) In this single arm study, 38 patients were intended for treatment with anamorelin for 6 weeks with an optional extension phase of 6 more weeks based on tolerability and safety and patient willingness. Patients received anamorelin 100 mg tablets and physical activity for 6 weeks for the intervention phase. Patients took 1 tablet orally while fasting (at least 1 hour before a meal).
(§2) Secondary objectives of the study were to examine the effects of anamorelin and standardized physical activity and nutritional counseling on Health-related quality of life and patient reported outcomes as measured by The Multidimensional Fatigue Symptom Inventory-Short Form[MFSI-SF], PROMIS-Fatigue, Hospital Anxiety Depression Scale (HADS), Edmonton Symptom Assessment Scale (ESAS), Functional Assessment of Cancer Therapy (FACT-G), and its Functional Assessment of Anorexia/Cachexia Treatment (FAACT) subscale in these patients.
MFSI-SF consists of 30 items designed to assess the multidimensional nature of fatigue(Stein, Jacobsen et al. 2004). Ratings are summed to obtain scores for 5 subscales (general fatigue, physical fatigue, emotional fatigue, mental fatigue, and vigor).

[2] = tested on: patients with advanced cancer; test: Edmonton Symptom Assessment Scale (ESAS), Example 1 study; settings: change from baseline, 100 mg oral daily + physical activity + nutritional counseling
Experimental: as §1, §2
The ESAS measures 10 common symptoms in the past 24 hours (pain, fatigue, nausea, depression, anxiety, drowsiness, shortness of breath, appetite, sleep, and feeling of well-being); This questionnaire has been found valid and reliable in cancer populations (Bruera, Kuehn et al. 1991).

[3] = Weight and body composition (InBody), Example 1 study; settings: Day 43, 28 evaluable patients, 100 mg oral daily + physical activity + nutritional counseling
Experimental: as §1
(§3) Exploratory objectives of the study were to explore the effects of anamorelin and standardized physical activity and nutritional counseling on muscle function (as measured by the 30 second chair stand test, 6 minute walk test, day time activity (accelerometer), body composition (as measured by INBODY), and Resting Energy Expenditure (measured by indirect calorimetry)
Body Composition: All patients were assessed for lean body mass, skeletal muscle mass, extracellular water/total body water body, fat mass, body fat mass, and whole body phase angle evaluation (using the InBody body composition scale) (Dalal, Hui et al. 2012, Del Fabbro, Parsons et al. 2012, Yennurajalingam, Willey et al. 2012, Hui, Bansal et al. 2014). Resting energy expenditure was assessed at baseline and Day 43±3 days, and at the end of 6 weeks of the extension phase.

[4] = tested on: patients with advanced cancer; test: FAACT Anorexia/Cachexia subscale, Example 1 study; settings: change from baseline, 100 mg oral daily + physical activity + nutritional counseling
Experimental: as §1, §2
The FAACT-Anorexia/Cachexia subscale is a 12-item symptom-specific subscale designed to measure patients' additional concerns about their anorexia/cachexia during the previous 7 days. The FAACT has internal consistency and a reliability coefficient (Cronbach's alpha) of 0.88 for the 12 components (Ribaudo, Cella et al. 2000). Patients rate the intensity of anorexia/cachexia and its related symptoms on a 0-4 scale like that used in the FACIT-F.

[5] = tested on: patients with advanced cancer; test: FACT-G, Example 1 study; settings: change from baseline, 100 mg oral daily + physical activity + nutritional counseling
Experimental: as §1, §2
The FACT-G is a 27-item compilation of general questions divided into four primary domains: Physical Well-Being, Social/Family Well-Being, Emotional Well-Being, and Functional Well-Being. It is appropriate for use in patients with any form of cancer, and extensions of it have been used and validated in other chronic illness conditions as well (Cella, Tulsky et al. 1993, Webster, Cella et al. 2003). The FACT-G is the first 2 pages of FACIT-F.

[6] = tested on: patients with advanced cancer; test: PROMIS-Fatigue, Example 1 study; settings: change from baseline, 100 mg oral daily + physical activity + nutritional counseling
Experimental: as §1, §2
PROMIS measures key symptoms and health concepts applicable to advanced cancer, enabling efficient and interpretable clinical trial research and clinical practice application of patient-reported outcomes (PROs) (Rothrock, Hays et al. 2010, Yost, Eton et al. 2011).

IGF-1 = IGF-1 level, Example 1 study; settings: Day 43, 28 evaluable patients, 100 mg oral daily + physical activity + nutritional counseling
Experimental: as §1

[7] = tested on: patients with advanced cancer; test: Daytime activity by accelerometer (actigraphy), Example 1 study; settings: 100 mg oral daily + physical activity + nutritional counseling
Experimental: as §1, §3
(§4) Measures: We used the 30 second chair stand test, six-minute walk test, and an accelerometer. A self-report exercise questionnaire, the Godin Leisure-Time physical activity questionnaire, was used to complement the objective measures. IM Systems-three dimensional accelerometers (“Biotrainer-Pro”) was used to objectively measure physical activity.

[8] = tested on: patients with advanced cancer; test: Physical performance tests (30 second chair stand test, 6-minute walk test), Example 1 study; settings: Day 43 vs baseline, 100 mg oral daily + physical activity + nutritional counseling
Experimental: as §1, §3
Measures: We used the 30 second chair stand test, six-minute walk test, and an accelerometer. A self-report exercise questionnaire, the Godin Leisure-Time physical activity questionnaire, was used to complement the objective measures. […]
(§5) Physical Performance Tests: The 30 second chair stand test, 6-minute walk test, and Godin Leisure-Time physical activity questionnaire were administered at baseline and on Day 43. The 30 second sit-to-stand task assessed lower body strength (Rikli and Jones 1999).
In the six-minute walk test, participants were asked to walk as fast and as far as they can for six minutes, and the distance walked was measured. […]

[9] = tested on: patients with advanced cancer; test: Godin Leisure-Time physical activity questionnaire, Example 1 study; settings: Day 86 (N = 8), change from baseline, 100 mg oral daily + physical activity + nutritional counseling
Experimental: as §1, §4, §5
The Godin Leisure-Time physical activity questionnaire asks participants how many times per week on average they participate in strenuous, moderate and mild exercises for more than 15 minutes during their free time. […]

Compound: CN(C)N(C)C(=O)[C@@]1(Cc2ccccc2)CCCN(C(=O)[C@@H](Cc2c[nH]c3ccccc23)NC(=O)C(C)(C)N)C1 [anamorelin]
- MFSI-SF Mental fatigue, change, Mean (±SD) ([1]; Day 43 (N = 28)): −0.36 (±4.12),
- MFSI-SF Physical fatigue, change, Mean (±SD) ([1]; Day 43 (N = 28)): −0.39 (±5.03),
- MFSI-SF Total, change, Mean (±SD) ([1]; Day 43 (N = 28)): −2.07 (±17.59),
- MFSI-SF Vigor, change, Mean (±SD) ([1]; Day 43 (N = 28)): −1.11 (±5.28),
- MFSI-SF Emotional fatigue, change, Mean (±SD) ([1]; Day 86 (N = 8)): −0.88 (±2.42),
- MFSI-SF General fatigue, change, Mean (±SD) ([1]; Day 86 (N = 8)): −4.00 (±6.28),
- MFSI-SF Mental fatigue, change, Mean (±SD) ([1]; Day 86 (N = 8)): −2.25 (±3.62),
- MFSI-SF Physical fatigue, change, Mean (±SD) ([1]; Day 86 (N = 8)): −1.88 (±3.98),
- MFSI-SF Total, change, Mean (±SD) ([1]; Day 86 (N = 8)): −11.75 (±14.22),
- MFSI-SF Vigor, change, Mean (±SD) ([1]; Day 86 (N = 8)): 2.75 (±3.01),
- ESAS Appetite, change, Mean (±SD) ([2]; Day 15 (N = 28)): −0.43 (±3.06),
- ESAS-Fatigue, change, Mean (±SD) ([2]; Day 15 (N = 28)): −0.68 (±2.87),
- ESAS Appetite, change, Mean (±SD) ([2]; Day 29 (N = 28)): −1.04 (±3.19),
- ESAS-Fatigue, change, Mean (±SD) ([2]; Day 29 (N = 28)): −0.75 (±2.70),
- ESAS Appetite, change, Mean (±SD) ([2]; Day 43 (N = 28)): −0.56 (±3.07),
- ESAS-Fatigue, change, Mean (±SD) ([2]; Day 43 (N = 28)): −0.81 (±2.87),
- ESAS Appetite, change, Mean (±SD) ([2]; Day 86 (N = 8)): −0.13 (±3.09),
- ESAS-Fatigue, change, Mean (±SD) ([2]; Day 86 (N = 8)): −1.25 (±2.43),
- Lean Body Mass improvement from baseline, mean (SD) [3]: 1.54 (±1.85)
- Weight improvement from baseline, mean (SD) [3]: 1.81 (±2.63) kg
- FAACT-A/CS Total, change, Mean (±SD) ([4]; Day 15 (N = 28)): 1.70 (±4.89),
- FAACT-A/CS Total, change, Mean (±SD) ([4]; Day 29 (N = 28)): 4.53 (±5.54),
- FAACT-A/CS Total, change, Mean (±SD) ([4]; Day 86 (N = 8)): −5.86 (±3.72),
- FACT-G Total, change, Mean (±SD) ([5]; Day 15 (N = 28)): 0.59 (±9.17),
- FACT-G Total, change, Mean (±SD) ([5]; Day 29 (N = 28)): 1.31 (±8.97),
- FACT-G Total, change, Mean (±SD) ([5]; Day 43 (N = 28)): −1.10 (±10.71),
- FACT-G Total, change, Mean (±SD) ([5]; Day 86 (N = 8)): 4.54 (±7.65),
- PROMIS-Fatigue, change, Mean (±SD) ([6]; Day 15 (N = 28)): −2.74 (±6.12),
- PROMIS-Fatigue, change, Mean (±SD) ([6]; Day 29 (N = 28)): −3.64 (±8.22),
- PROMIS-Fatigue, change, Mean (±SD) ([6]; Day 86 (N = 8)): −6.36 (±6.32),
- IGF-1 change from baseline, mean (SD) (IGF-1): 36.50 (±48.76)
- Improvement in mean daytime activity (actigraphy activity measure) [7]: no significant improvement
- Improvement in the physical performance outcomes [8]: no significant improvement
- Godin Leisure Test Total, change, Mean (±SD) [9]: −0.67 (±6.35),
